From US9656995B2, “Triazine derivative” (Carna Biosciences, Inc., priority 2013, dated 2017)
Entries after “also recorded” stand apart in the source; their conditions may differ.

Columns and labels:
[1] = target: T1, BTK (Homo sapiens, UniProt Q06187); assay: Intracellular BTK auto-phosphorylation activity inhibition test in Ramos cells; format: cell-based; details: test compound 0.3 μM, anti-IgM stimulation, pY223, read-out: BTK Phosphorylation inhibiting activity
T1 construct: endogenous in cells; host or cells: Ramos cells (2G6.4C10, ATCC No. CRL-1923)
T1 sequence (Q06187 whole entry): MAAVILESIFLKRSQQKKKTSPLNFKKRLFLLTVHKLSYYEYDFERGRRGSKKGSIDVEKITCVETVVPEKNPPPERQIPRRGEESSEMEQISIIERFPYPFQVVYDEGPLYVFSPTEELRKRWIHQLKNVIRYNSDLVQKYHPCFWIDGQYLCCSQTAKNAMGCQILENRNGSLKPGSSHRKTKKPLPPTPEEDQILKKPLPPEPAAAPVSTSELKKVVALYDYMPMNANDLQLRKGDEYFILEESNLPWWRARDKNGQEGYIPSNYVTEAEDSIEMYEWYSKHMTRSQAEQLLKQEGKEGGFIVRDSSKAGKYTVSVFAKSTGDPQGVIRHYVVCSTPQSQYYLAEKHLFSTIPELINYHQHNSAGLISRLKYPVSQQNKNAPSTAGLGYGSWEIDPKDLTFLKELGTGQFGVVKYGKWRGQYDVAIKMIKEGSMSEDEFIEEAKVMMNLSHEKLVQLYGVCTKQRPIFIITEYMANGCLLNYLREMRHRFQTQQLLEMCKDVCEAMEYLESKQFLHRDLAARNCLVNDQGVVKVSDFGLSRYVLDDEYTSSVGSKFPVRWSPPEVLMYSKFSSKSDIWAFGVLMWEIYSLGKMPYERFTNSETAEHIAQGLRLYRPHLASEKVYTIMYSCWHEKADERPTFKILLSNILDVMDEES
Experimental: Intracellular BTK Auto-Phosphorylation Activity Inhibition Test
(Culture of Cells to be Used)
Ramos cells (2G6.4C10, ATCC No. CRL-1923) were cultured in a T75 flask containing RPMI-1640 medium (GIBCO, #A10491-01) supplemented with 10% FBS (AusGene) and 5% penicillin-streptomycin (Nacalai Tesque, Inc.) (hereinafter referred to as growth medium) in a 5% CO2 incubator.
(Addition of the Compound to be Tested)
The cultured Ramos cells were diluted to a cell density of 7.5×10^6 cells/mL with a serum-free RPMI-1640 (hereinafter referred to as medium) and kept at 37° C. for 45 minutes. The cell suspension was dispensed in 1 mL aliquots into 2.0 mL tubes. […]
To the pellets obtained by recovering the cells via centrifugation, 100 μL of a lysis buffer [RIPA Buffer(×1) (Cell Signaling Technology, Inc.) supplemented with 1% Phosphatase inhibitor Cacktail 3 (Sigma Corporation, No. P0044), 1% Phosphatase inhibitor Cacktail (Nacalai Tesque, Inc., No. 07575) and 1 mM phenylmethylsulfonyl fluoride (PMSF)] was added and stirred gently and then allowed to stand for 10 minutes. The supernatant was recovered by centrifugation (15,000 rpm, 15 minutes) and the protein level was quantified. […]

[2] = tested on: BCR signal in the Ramos cells; assay: Inhibition test on the change of Ramos intracellular calcium ion (anti-IgM BCR stimulation); format: cell-based; details: 0.003-1 μM, anti-IgM 2.0 μg/mL (FIG. 1)
Experimental: Inhibition Test on the Change of Ramos Intracellular Calcium Ion
The intracellular BTK inhibition by the compounds of the invention was verified by measuring the effects of the compounds of the invention on “anti-IgM antibody BCR stimulation-induced intracellular calcium influx”.
(Addition of Cell Suspension and Calcium Indicator)
One day before measurement, the Ramos cells were cultured after suspended again at a cell density of 1.0×10^6 cells/mL in a fresh growth medium (growth medium as used in Test Example 2), and the cells were recovered next day by centrifugation and washed with RPMI-1640 medium supplemented with 5% penicillin-streptomycin (Nacalai Tesque, Inc.) (Medium 1). These cells were suspended again at a cell density of 2.0×10^6 cells/mL in RPMI-1640 medium supplemented with 1% Ultra Low IgG FBS (GIBCO, #16250) and 5% penicillin-streptomycin (Nacalai Tesque, Inc.) (Medium 2), and thereafter each 100 μL of the cell suspension was added to each well of a poly lysine-coated microplate (BD BioCoat™, #356692), centrifuged (700 rpm, 3 minutes) and then incubated for 1 hour in a 5% CO2 incubator at 37° C. […]
Concentration of the Ramos intracellular calcium ion was measured as a fluorescent intensity of the calcium indicator Fluo-8NW using a microplate reader (SynergyH1) (Ex/Em=490/525 nm). […]

[3] = tested on: collagen-induced arthritis; assay: Rat collagen-induced arthritis model; format: in vivo; details: Lewis rat, 30 and 60 mg/kg orally twice a day
Experimental: Effect in Rat Collagen-Induced Arthritis Model
Incomplete Freund's Adjuvant (Sigma-Aldrich, #F5506) and Bovine Type II Collagen, 4 mg/mL Solution (Sichuan University, Lot.08H0497) were mixed in a 1:1 ratio to form an emulsion. Three groups of Lewis rat (10 animals/group) (5-6 week old, female) received 0.5 mL per animal of the emulsion which was given in small portions on Day 0 and Day 7 by intradermal injection at 3 sites, one site at the base of the tail (0.1 mL), and the rest of two sites (0.2 mL/site) were on the back of the rat near to the base of the tail, thereby accomplishing the immunization. The solvent or the test compound solution was given twice a day orally every day from Day 0 to Day 20 (test compound doses in the respective groups: 0 mg/kg, 30 mg/kg, 60 mg/kg). The treatment solution was prepared with the similar solvent in the similar manner as Test Example 4.
After the boost on Day 7, the state of the arthritis onset in each extremity was scored visually twice in a week according to the criteria shown in Table 8. The scores of all four extremities were summed up on each rat basis, and the mean value of 10 animals in each group was represented as an arthritis score (normal “0” up to maximum “16”).

[4] = tested on: passive cutaneous anaphylaxis reaction (PCA reaction); assay: Passive cutaneous anaphylaxis reaction in mouse; format: in vivo; details: ICR mouse, oral, 3.0 mg/mL at 10 mL/kg, vs solvent group (FIG. 2)
Description: Test of Passive Cutaneous Anaphylaxis Reaction in Mouse
Since BTK plays an important role in FcεRI signal transmission in a mast cell, it was investigated whether a mast cell-involving immediate allergic reaction, namely, passive cutaneous anaphylaxis reaction (PCA reaction), which is an immediate allergic reaction involving mast cell, was inhibited by the administration of the compound.
(Preparation of Test Compound Solution)
DMSO, polyethylene glycol 400 (PEG#400, Nacalai Tesque, Inc. #28215-95), and 30% (w/v) hydroxypropyl-β-cyclodextrin aqueous solution (HP-β-CD, Sigma Corporation, #332607-500) were successively added to the test compound in this order, and mixed thoroughly to prepare a test compound solution (solvent composition: 5% solution of test compound in DMSO, 30% PEG#400, 65% HP-β-CD [30% (w/v) aqueous solution]). In the solvent control group, a DMSO solution was used instead of the solution of the test compound in DMSO.
An anti DNP-IgE monoclonal antibody (50 μg/mL, Santa Cruz Biotechnology, Inc., #sc-69695) was intradermally administered to both auricles in an ICR mouse under systemic anesthesia (10 μL/site). […] The absorbance of the resultant filtrate at 620 nm was measured, and used as an index of the dye leakage level. […]

[5] = tested on: collagen-induced arthritis; assay: Mouse collagen-induced arthritis model; format: in vivo; details: DBA/1J mice, 30 and 60 mg/kg orally twice a day
Experimental: Effect in Mouse Collagen-Induced Arthritis Model
Incomplete Freund's Adjuvant (Chondrex, Inc., #7002) supplemented with M. Tuberculosis H37 Ra, Desiccated (Beckton Dickinson and Company, #231141) at 2.5 mg/mL and Bovine Type II Collagen, 2 mg/mL Solution (Chondrex, Inc., #20022) were mixed in a 1:1 ratio to form an emulsion.
Three groups of DBA/1J mice (10 animals/group) (6-week old, male) received 0.1 mL per animal of the emulsion which was given in small portions on Day 0 and Day 21 by intradermal injection at the base of the tail, thereby accomplishing the immunization. The solvent or the test compound solution was given twice a day orally every day from Day 18 to Day 36 (test compound doses in the respective groups: 0 mg/kg, 30 mg/kg, 60 mg/kg). The treatment solution was prepared with the similar solvent in the similar manner as Test Example 4.
After the boost on Day 21, the state of the arthritis onset in each extremity was scored visually once in 2 or 3 days according to the criteria shown in Table 7. The scores of all four extremities were summed up on each mouse basis, and the mean value of 10 animals in each group was represented as an arthritis score (normal “0” up to maximum “16”).

Structure (SMILES) | inhibition at 0.3 µM [1] [%] | Inhibition of change of intracellular calcium ion induced by BCR-stimulation [2] | Toxic signs such as weight loss ([3]; Day 0 to Day 20) | Inhibition of onset of arthritis (arthritis score) ([3]; Day 0 to Day 20 (FIG. 4)) | Inhibition of leakage of the dye into the auricles (PCA reaction) [4] | Toxic signs such as weight loss ([5]; Day 18 to Day 36) | Inhibition of onset of arthritis (arthritis score) ([5]; Day 18 to Day 36 (FIG. 3))
Cn1cc(Nc2nc(N)nc(-c3cccc(-n4ccc5cc(C6CC6)cc(F)c5c4=O)c3CO)n2)cn1 [Example 1, 2-(3-{4-Amino-6-[(1-methyl-1H-pyrazol-4-yl)amino]-1,3,5-triazin-2-yl}-2-(hydroxymethyl)phenyl)-6-cyclopropyl-8-fluoroisoquinolin-1(2H)-one] | ≥ 70 | in a concentration-dependent manner from a low concentration; also recorded: inhibits the BCR signal in the Ramos cells in a concentration dependent manner | able to circumvent any toxic signs such as weight loss | inhibited the onset of the arthritis in a dose dependent manner | inhibited the leakage of the dye in blood into the auricles significantly | able to circumvent any toxic signs such as weight loss | inhibited the onset of the arthritis in a dose dependent manner
Cn1cc(Nc2nc(N)nc(-c3cccc(-n4ccc5cc(C6CC6)cc(F)c5c4=O)c3CO)n2)cc1C#N [Example 2, 4-({4-Amino-6-[3-(6-cyclopropyl-8-fluoro-1-oxoisoquinolin-2(1H)-yl)-2-(hydroxymethyl)phenyl]-1,3,5-triazin-2-yl}amino)-1-methyl-1H-pyrrole-2-carbonitrile] | ≥ 70 | – | – | – | – | – | –
